The values below come from ChEMBL document CHEMBL1150765, “Clavatadine A, a natural product with selective recognition and irreversible inhibition of factor XIa” (J Med Chem, 2008).

For assay [1], the target named is Coagulation factor IX (Homo sapiens) (UniProt P00740). Put plainly: Inhibition of factor 9a at 222 uM.
Another assay has as its target Coagulation factor XI (Homo sapiens, UniProt P03951). Put plainly: Inhibition of factor 11a.

Sequence of Coagulation factor XI (P03951 19-387 limits assumed): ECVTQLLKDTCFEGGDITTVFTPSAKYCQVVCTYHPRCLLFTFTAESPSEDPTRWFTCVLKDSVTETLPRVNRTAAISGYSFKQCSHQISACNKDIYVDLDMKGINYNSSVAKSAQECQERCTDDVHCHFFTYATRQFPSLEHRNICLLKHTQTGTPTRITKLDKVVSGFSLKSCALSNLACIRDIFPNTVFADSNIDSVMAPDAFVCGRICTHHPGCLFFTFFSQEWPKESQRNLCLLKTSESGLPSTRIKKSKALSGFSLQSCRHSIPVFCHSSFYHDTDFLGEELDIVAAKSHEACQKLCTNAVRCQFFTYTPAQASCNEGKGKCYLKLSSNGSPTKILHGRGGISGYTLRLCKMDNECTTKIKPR
Sequence of Coagulation factor XI (P03951 388-625 limits assumed): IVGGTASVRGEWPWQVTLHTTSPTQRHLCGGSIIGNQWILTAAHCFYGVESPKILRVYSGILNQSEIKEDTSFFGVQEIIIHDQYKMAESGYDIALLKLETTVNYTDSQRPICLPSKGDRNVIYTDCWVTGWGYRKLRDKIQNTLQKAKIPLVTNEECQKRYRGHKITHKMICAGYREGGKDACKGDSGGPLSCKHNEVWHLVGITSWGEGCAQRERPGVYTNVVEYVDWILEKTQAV
Sequence of Coagulation factor IX (Homo sapiens) (P00740 47-191 limits assumed): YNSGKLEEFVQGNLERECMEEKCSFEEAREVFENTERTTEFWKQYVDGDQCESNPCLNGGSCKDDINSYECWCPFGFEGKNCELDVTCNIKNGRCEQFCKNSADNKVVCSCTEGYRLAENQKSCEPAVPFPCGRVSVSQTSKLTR
Sequence of Coagulation factor IX (Homo sapiens) (P00740 227-461 limits assumed): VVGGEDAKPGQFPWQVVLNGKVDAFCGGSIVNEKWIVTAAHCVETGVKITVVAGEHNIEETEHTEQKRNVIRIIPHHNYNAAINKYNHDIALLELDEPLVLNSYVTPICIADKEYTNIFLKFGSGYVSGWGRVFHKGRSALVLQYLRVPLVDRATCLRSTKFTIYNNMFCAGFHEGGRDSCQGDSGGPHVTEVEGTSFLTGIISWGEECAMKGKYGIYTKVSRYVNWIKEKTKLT

For `N=C(N)NCCCCNC(=O)Oc1c(Br)cc(O)c(CC(=O)O)c1Br` [CLAVATADINE A], in assay [1], the inhibition (as a rule, the relative decrease from the control value, in per cent) is less than 5%. The concentration for half-maximal inhibition (IC50) (usually the concentration that inhibits the measured activity by half) at Coagulation factor XI was determined as 1.3 µM.

The molecule `N=C(N)NCCCCNC(=O)Oc1cc(Br)c(O)c(Br)c1CC(N)=O` [CLAVATADINE B] registered an inhibition in assay [1] of less than 5%. This molecule returned an IC50 at Coagulation factor XI of 27 µM.
